# Measurements published in PubChem BioAssay (NCI).
#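 Compound exposure: 48 hours, 5 concentrations, 96-well plates. GI50 is the concentration that inhibits growth by half. TGI denotes the concentration required for complete inhibition of growth.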
# Key:
# Assay in all cases: NCI anticancer screen, dose series, 48 h
# DU-145 prostate = system: DU-145 prostate
# SK-MEL-5 melanoma = system: SK-MEL-5 melanoma
# MOLT-4 leukemia = system: MOLT-4 leukemia
# A549 NSCLC = system: A549 NSCLC
# 786-0 renal = system: 786-0 renal
# SF-295 CNS = system: SF-295 CNS
# SF-539 CNS = system: SF-539 CNS
# HOP-92 NSCLC = system: HOP-92 NSCLC
# M14 melanoma = system: M14 melanoma
# BT-549 breast = system: BT-549 breast
# NCI/ADR-RES ovarian = system: NCI/ADR-RES ovarian
# HCT-116 colon = system: HCT-116 colon
# PC-3 prostate = system: PC-3 prostate
# MDA-MB-468 breast = system: MDA-MB-468 breast
# LOX IMVI melanoma = system: LOX IMVI melanoma
# SF-268 CNS = system: SF-268 CNS
# COLO 205 colon = system: COLO 205 colon
# EKVX NSCLC = system: EKVX NSCLC
# HT29 colon = system: HT29 colon
# A498 renal = system: A498 renal
# IGROV1 ovarian = system: IGROV1 ovarian
# SNB-75 CNS = system: SNB-75 CNS
# OVCAR-4 ovarian = system: OVCAR-4 ovarian
# UACC-257 melanoma = system: UACC-257 melanoma
# UACC-62 melanoma = system: UACC-62 melanoma
# HL-60(TB) leukemia = system: HL-60(TB) leukemia
# RXF 393 renal = system: RXF 393 renal
# HCT-15 colon = system: HCT-15 colon
# OVCAR-8 ovarian = system: OVCAR-8 ovarian
# NCI-H460 lung = system: NCI-H460 lung
# SW-620 colon = system: SW-620 colon
# NCI-H226 lung = system: NCI-H226 lung
# MCF7 breast = system: MCF7 breast
# T-47D breast = system: T-47D breast
# ACHN renal = system: ACHN renal
# MDA-MB-435 = system: MDA-MB-435
# TK-10 renal = system: TK-10 renal
# SNB-19 CNS = system: SNB-19 CNS
# CCRF-CEM leukemia = system: CCRF-CEM leukemia
# U251 CNS = system: U251 CNS
# NCI-H23 lung = system: NCI-H23 lung
# RPMI-8226 leukemia = system: RPMI-8226 leukemia
# HCC-2998 colon = system: HCC-2998 colon
# OVCAR-5 ovarian = system: OVCAR-5 ovarian
# HS 578T breast = system: HS 578T breast
# K-562 leukemia = system: K-562 leukemia
# SN12C renal = system: SN12C renal
# CAKI-1 renal = system: CAKI-1 renal
# MALME-3M melanoma = system: MALME-3M melanoma
# HOP-62 NSCLC = system: HOP-62 NSCLC
# OVCAR-3 ovarian = system: OVCAR-3 ovarian
# SK-OV-3 ovarian = system: SK-OV-3 ovarian
# KM12 colon = system: KM12 colon
# NCI-H522 lung = system: NCI-H522 lung
# SK-MEL-2 melanoma = system: SK-MEL-2 melanoma
# SK-MEL-28 melanoma = system: SK-MEL-28 melanoma
smiles,measurement,setting,value
O=C(N/N=C/c1ccc(B(O)O)o1)c1[nH]c2ccc(Br)cc2c1-c1ccccc1,GI50,DU-145 prostate,32.3 µM
same,TGI,DU-145 prostate,> 100 µM
same,GI50,SK-MEL-5 melanoma,14.7 µM
same,TGI,SK-MEL-5 melanoma,35.5 µM
same,GI50,MOLT-4 leukemia,20.3 µM
same,TGI,MOLT-4 leukemia,73.3 µM
same,GI50,A549 NSCLC,27.1 µM
same,TGI,A549 NSCLC,> 100 µM
same,GI50,786-0 renal,17.9 µM
same,TGI,786-0 renal,54.6 µM
same,GI50,SF-295 CNS,13.1 µM
same,TGI,SF-295 CNS,43.1 µM
same,GI50,SF-539 CNS,13 µM
same,TGI,SF-539 CNS,31.3 µM
same,GI50,HOP-92 NSCLC,11.7 µM
same,TGI,HOP-92 NSCLC,52.8 µM
same,GI50,M14 melanoma,19 µM
same,TGI,M14 melanoma,> 100 µM
same,GI50,BT-549 breast,12 µM
same,TGI,BT-549 breast,33.3 µM
same,GI50,NCI/ADR-RES ovarian,12.2 µM
same,TGI,NCI/ADR-RES ovarian,56.2 µM
same,GI50,HCT-116 colon,16.9 µM
same,TGI,HCT-116 colon,> 100 µM
same,GI50,PC-3 prostate,12.9 µM
same,TGI,PC-3 prostate,> 100 µM
same,GI50,MDA-MB-468 breast,19.3 µM
same,TGI,MDA-MB-468 breast,57.2 µM
same,GI50,LOX IMVI melanoma,18.1 µM
same,TGI,LOX IMVI melanoma,> 100 µM
same,GI50,SF-268 CNS,16.1 µM
same,TGI,SF-268 CNS,> 100 µM
same,GI50,COLO 205 colon,19.8 µM
same,TGI,COLO 205 colon,46.6 µM
same,GI50,EKVX NSCLC,28.6 µM
same,TGI,EKVX NSCLC,> 100 µM
same,GI50,HT29 colon,20.6 µM
same,TGI,HT29 colon,50.9 µM
same,GI50,A498 renal,23.3 µM
same,TGI,A498 renal,> 100 µM
same,GI50,IGROV1 ovarian,25.7 µM
same,TGI,IGROV1 ovarian,> 100 µM
same,GI50,SNB-75 CNS,3.26 µM
same,TGI,SNB-75 CNS,20.6 µM
same,GI50,OVCAR-4 ovarian,47 µM
same,TGI,OVCAR-4 ovarian,> 100 µM
same,GI50,UACC-257 melanoma,19.1 µM
same,TGI,UACC-257 melanoma,> 100 µM
same,GI50,UACC-62 melanoma,3.24 µM
same,TGI,UACC-62 melanoma,15.5 µM
same,GI50,HL-60(TB) leukemia,13 µM
same,TGI,HL-60(TB) leukemia,37.1 µM
same,GI50,RXF 393 renal,5.38 µM
same,TGI,RXF 393 renal,24.1 µM
same,GI50,HCT-15 colon,22.6 µM
same,TGI,HCT-15 colon,> 100 µM
same,GI50,OVCAR-8 ovarian,17.7 µM
same,TGI,OVCAR-8 ovarian,41.6 µM
same,GI50,NCI-H460 lung,29.1 µM
same,TGI,NCI-H460 lung,> 100 µM
same,GI50,SW-620 colon,35.7 µM
same,TGI,SW-620 colon,> 100 µM
same,GI50,NCI-H226 lung,45.8 µM
same,TGI,NCI-H226 lung,> 100 µM
same,GI50,MCF7 breast,24.7 µM
same,TGI,MCF7 breast,> 100 µM
same,GI50,T-47D breast,21.4 µM
same,TGI,T-47D breast,> 100 µM
same,GI50,ACHN renal,29.6 µM
same,TGI,ACHN renal,> 100 µM
same,GI50,MDA-MB-435,3.66 µM
same,TGI,MDA-MB-435,> 100 µM
same,GI50,TK-10 renal,37.1 µM
same,TGI,TK-10 renal,> 100 µM
same,GI50,SNB-19 CNS,21.1 µM
same,TGI,SNB-19 CNS,89.7 µM
same,GI50,CCRF-CEM leukemia,17.5 µM
same,TGI,CCRF-CEM leukemia,55.4 µM
same,GI50,U251 CNS,16.5 µM
same,TGI,U251 CNS,44.4 µM
same,GI50,NCI-H23 lung,26.5 µM
same,TGI,NCI-H23 lung,> 100 µM
same,GI50,RPMI-8226 leukemia,29.5 µM
same,TGI,RPMI-8226 leukemia,> 100 µM
same,GI50,HCC-2998 colon,25.4 µM
same,TGI,HCC-2998 colon,90.2 µM
same,GI50,OVCAR-5 ovarian,27.5 µM
same,TGI,OVCAR-5 ovarian,> 100 µM
same,GI50,HS 578T breast,8.91 µM
same,TGI,HS 578T breast,93.6 µM
same,GI50,K-562 leukemia,5.46 µM
same,TGI,K-562 leukemia,45 µM
same,GI50,SN12C renal,24.4 µM
same,TGI,SN12C renal,> 100 µM
same,GI50,CAKI-1 renal,30.8 µM
same,TGI,CAKI-1 renal,> 100 µM
same,GI50,MALME-3M melanoma,26.9 µM
same,TGI,MALME-3M melanoma,> 100 µM
same,GI50,HOP-62 NSCLC,11.9 µM
same,TGI,HOP-62 NSCLC,36.6 µM
same,GI50,OVCAR-3 ovarian,14.8 µM
same,TGI,OVCAR-3 ovarian,> 100 µM
same,GI50,SK-OV-3 ovarian,21.8 µM
same,TGI,SK-OV-3 ovarian,67.3 µM
same,GI50,KM12 colon,19.2 µM
same,TGI,KM12 colon,> 100 µM
same,GI50,NCI-H522 lung,2940 nM
same,TGI,NCI-H522 lung,13.5 µM
same,GI50,SK-MEL-2 melanoma,13.5 µM
same,TGI,SK-MEL-2 melanoma,43.5 µM
same,GI50,SK-MEL-28 melanoma,10.7 µM
same,TGI,SK-MEL-28 melanoma,> 100 µM
